Results from patent US8969312B2, “Low side effect pharmaceutical composition containing antituberculosis drugs” (priority 2011, dated 2015).

Legend:
amidase = experiment: Mouse liver microsomal amidase, isoniazid to isonicotinic acid; format: biochemical
Description: Mouse liver microsomes were used as the source of amidase, and isoniazid was used as the amidase metabolism drugs. quantitative isoniazid was catalyzed into metabolites isonicotinic acid (INA) by amidase, and was used as the index for measurement of the amidase activity for establishment of the platform for screening in vitro amidase activity inhibitors. The HPLC system includes a Shimadzu the LC-LOAD pump, 1 Shimadzu system control and a Shimadzu autosampler (Shimadzu Scientific Instrument, Japan). A C18 column (particle size 5 μm, inner diameter of 50×4.6 mm, 25 cm) containing 70% methanol and 30% ammonium formate (50 mM, pH=2.5) of the mobile phase for HPLC separation, and the experimental steps are outlined as follows:
(2) An aliquot of 150 μL mouse liver microsomal solution was added to 100 μL isoniazid solution in 35 μL 67 mM potassium phosphate buffer solution ([…], pH=7) with a final concentration at 3 mM, and then mixed thoroughly with 15 μL amidase inhibitor (deionized water was added in the control group). (3) Incubation at 37° C. water bath for 30 minutes. (4) An aliquot of 300 μL acetonitrile (ACN) was added and mixed thoroughly, and incubated for 6 minutes. (5) An aliquot of 30 μL perchloric acid was then mixed and incubated for 6 minutes. (6) The mixture was centrifuged at 13000 g for 6 minutes. (7) After centrifugation, 100 μL of the supernatant was injected into HPLC. (8) Methanol ammonium formate (50 mM, pH=2.5)=70:30 (V/V) was selected as the mobile phase, and the flow rate was controlled at […] and detected at 270 nm UV. […] The amidase inhibition % was then calculated using the following formula: […]

[1] = molecular target: human liver microsomal cytochrome P450 2E1 (CYP2E1) (Homo sapiens, UniProt P05181); experiment: Human liver microsomal CYP2E1, chlorzoxazone 6-hydroxylation;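 further: chlorzoxazone added as substrate, 6-hydroxychlorzoxazone formation quantified by LC/MS/MS after 30 min at 37 °C with NADP+ regenerating system, compared against solvent control without test sample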
[2] = Table 6, minimum tested concentration (mg/L) × volume of human liver and intestine (3 L)

Chain of human liver microsomal cytochrome P450 2E1 (CYP2E1) (P05181 whole entry): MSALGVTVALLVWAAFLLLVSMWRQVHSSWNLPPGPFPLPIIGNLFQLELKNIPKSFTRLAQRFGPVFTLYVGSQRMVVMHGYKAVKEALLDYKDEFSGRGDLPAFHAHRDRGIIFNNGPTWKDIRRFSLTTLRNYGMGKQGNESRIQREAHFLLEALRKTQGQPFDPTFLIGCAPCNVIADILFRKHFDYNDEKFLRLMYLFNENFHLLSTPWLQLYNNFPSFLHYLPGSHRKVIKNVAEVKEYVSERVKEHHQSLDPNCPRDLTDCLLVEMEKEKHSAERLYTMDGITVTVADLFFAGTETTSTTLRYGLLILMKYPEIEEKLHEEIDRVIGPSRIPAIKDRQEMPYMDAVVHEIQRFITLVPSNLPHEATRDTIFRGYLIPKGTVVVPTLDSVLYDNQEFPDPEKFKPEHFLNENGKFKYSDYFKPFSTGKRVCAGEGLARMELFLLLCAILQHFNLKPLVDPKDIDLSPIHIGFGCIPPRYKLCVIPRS

| Compound | Amidase inhibition (amidase; 1 uM) [%] | Amidase inhibition (amidase; 10 uM) [%] | Amidase inhibition (amidase; 100 uM) [%] | Minimum Effective Dose [1, 2] [mg] | also measured |
| --- | --- | --- | --- | --- | --- |
| CCCCCCCCCCCCO [Lauryl Alcohol] | 2.2 ± 3.1 | −0.7 ± 1.5 | 4.1 ± 4.3 | – | – |
| Magnesium stearate | – | – | – | – | Inhibition of CYP 2E1 ([1]; 16.5 μM): 2.0 ± 1.0%; Inhibition of CYP 2E1 ([1]; 33 μM): 3.0 ± 0.7%; Inhibition of CYP 2E1 ([1]; 66 μM): 5.0 ± 1.6% |
| COc1ccc(-c2cc(=O)c3c(OC)c(OC)c(OC)cc3o2)cc1OC [Sinensetin] | −0.8 ± 3.0 | 6.6 ± 0.5 | 9.7 ± 0.9 | – | – |
| O=c1c(O)c(-c2cc(O)c(O)c(O)c2)oc2cc(O)cc(O)c12 [Myricetin] | 8.0 ± 4.9 | 37.8 ± 8.4 | 56.4 ± 1.5 | 17 | – |
| COc1cc(C2Oc3cc([C@H]4Oc5cc(O)cc(O)c5C(=O)[C@@H]4O)ccc3OC2CO)ccc1O (some centres unmarked) [Silybin] | – | – | – | 26 | – |
| O=c1cc(-c2ccc(O)cc2)oc2cc(O)cc(O)c12 [Apigenin] | −10.2 ± 20.3 | 13.2 ± 3.4 | – | 15 | – |
| (−)-Epicatechin-3-gallate | – | – | – | 24 | Inhibition of CYP 2E1 ([1]; 16.5 μM): 30.31 ± 1.27%; Inhibition of CYP 2E1 ([1]; 33 μM): 34.84 ± 1.72%; Inhibition of CYP 2E1 ([1]; 66 μM): 42.92 ± 0.65% |
| O=C/C=C/c1ccccc1 [Trans-Cinnamaldehyde] | – | – | – | 7 | – |
| CCCCCCCCCCCCCC(=O)OCC [Ethyl Myristate] | – | – | – | 14 | – |
| C[C@@H]1O[C@@H](OC[C@H]2O[C@@H](Oc3cc(O)c4c(c3)O[C@H](c3ccc(O)c(O)c3)CC4=O)[C@H](O)[C@@H](O)[C@@H]2O)[C@H](O)[C@H](O)[C@H]1O [Eriocitrin] | −16.1 ± 12.8 | 19.0 ± 3.0 | 32.8 ± 1.9 | – | – |
| O=C(O[C@@H]1Cc2c(O)cc(O)cc2O[C@@H]1c1cc(O)c(O)c(O)c1)c1cc(O)c(O)c(O)c1 [(−)-Epigallocetechin-3-gallate] | – | – | – | – | Inhibition of CYP 2E1 ([1]; 16.5 μM): 50.19 ± 1.89%; Inhibition of CYP 2E1 ([1]; 33 μM): 60.53 ± 2.06%; Inhibition of CYP 2E1 ([1]; 66 μM): 72.16 ± 1.02% |
| O=c1c(O)c(-c2ccc(O)c(O)c2)oc2cc(O)ccc12 [Fisetin] | −9.2 ± 2.5 | 38.3 ± 2.0 | 56.4 ± 2.9 | – | – |
| C[C@@H]1O[C@@H](Oc2c(-c3ccc(O)c(O)c3)oc3cc(O)cc(O)c3c2=O)[C@H](O)[C@H](O)[C@H]1O [Quercitrin] | – | – | – | 24 | – |
| COc1cc(/C=C/C(=O)CC(=O)/C=C/c2ccc(O)c(OC)c2)ccc1O [Curcumin] | 16.9 ± 11.0 | 16.1 ± 0.4 | 9.7 ± 6.0 | – | – |
| C[C@@H]1O[C@@H](OC[C@H]2O[C@@H](Oc3c(-c4ccc(O)c(O)c4)oc4cc(O)cc(O)c4c3=O)[C@H](O)[C@@H](O)[C@@H]2O)[C@H](O)[C@H](O)[C@H]1O [Rutin] | – | – | – | 33 | – |
| COc1ccc(-c2cc(=O)c3c(O)cc(O)c(-c4cc(-c5cc(=O)c6c(O)cc(OC)cc6o5)ccc4OC)c3o2)cc1 [Sciadopitysin] | 10.3 ± 3.8 | 20.7 ± 6.0 | 20.6 ± 19.3 | – | – |
| COc1ccc([C@@H]2CC(=O)c3c(O)cc(O[C@@H]4O[C@H](CO[C@@H]5O[C@@H](C)[C@H](O)[C@@H](O)[C@H]5O)[C@@H](O)[C@H](O)[C@H]4O)cc3O2)cc1O [Hesperidin] | – | – | – | 33 | Inhibition of CYP 2E1 ([1]; 16.5 μM): 45.32 ± 1.57%; Inhibition of CYP 2E1 ([1]; 33 μM): 50.91 ± 2.81%; Inhibition of CYP 2E1 ([1]; 66 μM): 58.57 ± 3.78% |
| CC1(C)CC[C@]2(C(=O)O)CC[C@]3(C)C(=CC[C@@H]4[C@@]5(C)CC[C@H](O)C(C)(C)[C@@H]5CC[C@]43C)[C@@H]2C1 [Oleanolic Acid] | 20.3 ± 5.2 | 14.8 ± 3.4 | 24.5 ± 4.0 | – | – |
| O=c1cc(-c2ccc(O)c(O)c2)oc2cc(O)c([C@@H]3O[C@H](CO)[C@@H](O)[C@H](O)[C@H]3O)c(O)c12 [Homoorientin] | 7.4 ± 3.8 | 3.5 ± 0.9 | 18.0 ± 2.6 | – | – |
| CC(C)[C@@H](C)/C=C/[C@@H](C)[C@H]1CC[C@H]2C3=CC=C4C[C@@H](O)CC[C@]4(C)[C@H]3CC[C@]12C [Ergosterol] | 4.3 ± 10.7 | −0.4 ± 10.7 | 0.4 ± 3.6 | – | – |

| Compound | Amidase inhibition (amidase; 1 uM) [%] | Amidase inhibition (amidase; 10 uM) [%] | Amidase inhibition (amidase; 100 uM) [%] | Minimum Effective Dose [1, 2] [mg] | also measured |
| --- | --- | --- | --- | --- | --- |
| O=c1cc(-c2ccccc2)oc2c1ccc1ccccc12 [α-Naphthoflavone] | 7.3 ± 7.9 | 19.3 ± 3.7 | 36.9 ± 2.7 | – | – |
| O=C([O-])c1ccccc1.[Na+] [Sodium benzoate] | – | – | – | – | Inhibition of CYP 2E1 ([1]; 0.08% (w/v)): 7.8 ± 4.1%; Inhibition of CYP 2E1 ([1]; 0.167% (w/v)): 15.8 ± 0.9%; Minimum Effective Dose ([1]; Table 7): 9 mg; Inhibition of CYP 2E1 ([1]; […] (w/v)): 7.1 ± 2.0% |
| COc1ccc(-c2cc(=O)c3c(O)c(OC)c(OC)cc3o2)cc1O [Eupatorin] | 0.9 ± 2.8 | 7.5 ± 0.7 | 12.0 ± 7.4 | – | – |
| CC1(C)[C@@H](O[C@H]2O[C@H](C(=O)O)[C@@H](O)[C@H](O)[C@H]2O[C@@H]2O[C@H](C(=O)O)[C@@H](O)[C@H](O)[C@H]2O)CC[C@]2(C)[C@H]3C(=O)C=C4[C@@H]5C[C@@](C)(C(=O)O)CC[C@]5(C)CC[C@@]4(C)[C@]3(C)CC[C@@H]12 [Glycyrrhizin] | −1.3 ± 3.1 | 4.3 ± 11.3 | 24.4 ± 12.7 | – | – |
| O=C(/C=C/c1ccc(O)cc1)c1ccc(O)cc1O [Isoliquritigenin] | −18.7 ± 26.0 | 17.7 ± 8.3 | 57.2 ± 8.5 | – | – |
| COc1ccc([C@@H]2CC(=O)c3c(O)cc(O[C@@H]4O[C@H](CO)[C@@H](O)[C@H](O)[C@H]4O[C@@H]4O[C@@H](C)[C@H](O)[C@@H](O)[C@H]4O)cc3O2)cc1 [Poncirin] | 10.8 ± 3.8 | 8.1 ± 11.7 | 17.3 ± 5.8 | – | – |
| O=[N+]([O-])c1ccc(OP(=O)(O)Oc2ccc([N+](=O)[O-])cc2)cc1 [BNPP, bis-p-nitrophenyl phosphate, reference compound] | – | – | – | – | Amidase inhibition (amidase; positive control, own concentration not given): 92.1 ± 8.7% |
| O=c1c(O[C@@H]2O[C@H](CO)[C@H](O)[C@H](O)[C@H]2O)c(-c2ccc(O)c(O)c2)oc2cc(O)cc(O)c12 [Hyperoside] | – | – | – | 25 | – |
| COc1ccc([C@@H]2CC(=O)c3c(O)cc(O[C@@H]4O[C@H](CO)[C@@H](O)[C@H](O)[C@H]4O[C@@H]4O[C@@H](C)[C@H](O)[C@@H](O)[C@H]4O)cc3O2)cc1O [Neohesperidin] | – | – | – | 33 | Inhibition of CYP 2E1 ([1]; 16.5 μM): 42.81 ± 1.75%; Inhibition of CYP 2E1 ([1]; 33 μM): 48.96 ± 2.37%; Inhibition of CYP 2E1 ([1]; 66 μM): 58.70 ± 1.06% |
| COc1cc(-c2cc(=O)c3c(O)cc(O)cc3o2)ccc1O [Chrysoeriol] | 7.7 ± 7.1 | 24.9 ± 11.2 | 23.2 ± 1.2 | – | – |
| CC12CCC(CC1)C(C)(C)O2 [Cineole] | −16.5 ± 17.5 | −4.7 ± 4.9 | 22.9 ± 10.4 | – | – |
| COc1ccc(O)c(C(C)(C)C)c1 [Butylated hydroxyl anisol] | – | – | – | – | Inhibition of CYP 2E1 ([1]; 16.5 μM): −16.8 ± 0.5%; Inhibition of CYP 2E1 ([1]; 33 μM): −47.1 ± 5.1%; Inhibition of CYP 2E1 ([1]; 66 μM): −85.5 ± 3.9%; Minimum Effective Dose ([1]; Table 7): 9 mg |
| O=S(=O)([O-])NC1CCCCC1.[Na+] [Sodium cyclamate] | – | – | – | – | Inhibition of CYP 2E1 ([1]; 16.5 μM): 9.4 ± 2.7%; Inhibition of CYP 2E1 ([1]; 33 μM): 1.7 ± 4.7%; Inhibition of CYP 2E1 ([1]; 66 μM): 9.1 ± 2.6% |
| O=c1c(O)c(-c2ccccc2)oc2cc(O)cc(O)c12 [Galangin] | 9.6 ± 9.9 | 32.8 ± 4.4 | 61.5 ± 2.7 | – | – |
| O=c1c(-c2ccc(O)cc2)coc2cc(O[C@@H]3O[C@H](CO)[C@@H](O)[C@H](O)[C@H]3O)ccc12 [Daidzin] | 3.6 ± 3.0 | 1.1 ± 5.4 | 7.4 ± 6.3 | – | – |
| O=C1C[C@@H](c2ccc(O[C@@H]3O[C@H](CO)[C@@H](O)[C@H](O)[C@H]3O)cc2)Oc2cc(O)ccc21 [Liquiritin] | 2.5 ± 2.9 | −7.5 ± 13.4 | 12.5 ± 8.3 | – | – |
| O=C1C[C@@H](c2ccc(O)c(O)c2)Oc2cc(O)cc(O)c21 [Eriodictyol] | 9.0 ± 4.7 | 6.5 ± 11.3 | 22.3 ± 4.7 | – | – |
| Oc1cc(O)c2c(c1)O[C@@H](c1ccc(O)c(O)c1)[C@@H](O)C2 [(+)-Epicatechin] | – | – | – | 16 | Inhibition of CYP 2E1 ([1]; 16.5 μM): 66.71 ± 1.79%; Inhibition of CYP 2E1 ([1]; 33 μM): 52.32 ± 1.59% |
| O=c1cc(-c2ccc(O)cc2)oc2c([C@@H]3O[C@H](CO)[C@@H](O)[C@H](O)[C@H]3O)c(O)cc(O)c12 [Vitexin] | – | – | – | 24 | – |
